According to US11360077B2, “Death receptors as markers for rhTRAIL-sensitivity” (Cleveland State University, priority 2017, dated 2022):
Residues, ends and D or L forms follow the SMILES beside them. *: point of attachment. Cbz = O=C(OCc1ccccc1)*; CH2F = FC*

Assays:
Format in all cases: cell-based, human
MeWo [1] = test: Apoptosis assay (FITC-Annexin-V and PI staining, FACS); conditions: quercetin alone at 25 and 50 μM
Experimental: (§1) Cell Culture. Cells were incubated in a 90% humidified atmosphere with 5% CO2 at 37° C. Human adult primary epidermal melanocytes (ATCC PCS-200-013) were maintained in Dermal Cell Basal Medium supplemented with an Adult Melanocyte Growth kit (ATCC PCS-200-042) and 1% Antibiotic/Antimycotic Solution. The malignant melanoma cell lines, A375 (ATCC CRL-1619), WM9 and WM164 were maintained in DMEM and MeWo (ATCC HTB-65) was maintained in RPMI, both supplemented with 10% Fetal Bovine Serum (FBS) and 1% Antibiotic/Antimycotic Solution. WM9 and WM164 were a kind gift from Dr. Daniel J. Lindner from the Cleveland Clinic Foundation, Cleveland, Ohio Malignant melanoma lines are derived from patient tumors. A375 was derived from an epithelial skin biopsy. MeWo, WM9 and WM164 are metastatic malignant melanomas isolated from the lymph nodes.
(§2) Apoptosis Assay. Cells were trypsinized, harvested, washed twice with cold PBS and resuspended in 100 μl of Annexin-V binding buffer at a concentration of 1×10^3 cells/μl. According to manufacturer's protocol, cells were incubated with 5 μl of FITC-Annexin-V and propidium iodide (PI) for 15 minutes at room temperature in the dark (FITC-Annexin-V Kit Apoptosis Detection Kit I, BD Pharminogen). Stained cells were analyzed on BD FACS Canto II using Diva software. Single color controls (Annexin-V or PI only) were used to set up compensation and quadrants for FACS.
(§3) Melanoma rhTRAIL-Sensitivity: To test rhTRAIL-sensitivity, malignant melanoma lines were treated with and without 100 ng/ml of rhTRAIL for 72 hours. Prior to treatment, control experiments were done to determine the optimal conditions for rhTRAIL-treatment (data not shown). The treatment of 100 ng/ml for 72 hours was selected to best distinguish between rhTRAIL-sensitive and rhTRAIL-resistant melanomas. Post-treatment cells were analyzed for induction of apoptosis through FITC-Annexin-V and PI staining followed by FACS analysis (FIGS. 2A & 2B). […]

WM164 [2] = test: as above
Experimental: as §1, §2, §3

MeWo [3] = test: Western blot of apoptotic cascade (PARP, caspases, Bid, cytochrome c); conditions: quercetin alone at 25 and 50 μM
Experimental: (§4) Western Blot Analysis. Total cell lysates were prepared using RIPA lysis buffer (Sigma) containing 150 mM sodium chloride, 1.0% Triton X-100, 0.5% sodium deoxycholate, 0.1% sodium dodecyl sulfate (SDS) and 50 mM Tris, pH 8.0 plus a 1× cocktail of protease inhibitors (Protease Inhibitor Cocktail Set I, Calbiochem). Cells were lysed for 30 minutes at 4° C. followed by centrifugation for 10 minutes at 10,000 rpm at 4° C. Protein concentrations were determined using BCA protein assay (Pierce). A 35 μg protein aliquot was mixed with 4× Laemmli's SDS sample buffer (0.02% Bromophenol Blue (BPB), 8% Beta-mercaptoethanol (BME), 8% SDS, 40% glycerol and 250 mM Tris-HCl, pH 6.8). […]
(§5) Melanoma rhTRAIL-Sensitivity: To test rhTRAIL-sensitivity, malignant melanoma lines were treated with and without 100 ng/ml of rhTRAIL for 72 hours. […] Post-treatment cells were analyzed for induction of apoptosis through FITC-Annexin-V and PI staining followed by FACS analysis (FIGS. 2A & 2B).
(§6) Western Blot Analysis. Total cell lysates were analyzed for levels of PARP, caspase 8, caspase 3, Bid, caspase 9, caspase 6, caspase 7, FLIP, DR4 and DR5 and the cytosolic cellular fraction was analyzed for cytochrome C (Cell Signaling) using previously described western blotting techniques. […]

WM164 [4] = test: as above; conditions: WM164, quercetin alone at 25 and 50 μM
Experimental: as §4, §5, §6

DR4 [5] = test: Death receptor membrane expression (anti-DR4-PE staining, FACS)
Experimental: (§7) Death Receptor Membrane Expression. Untreated and rhTRAIL-treated cells were collected with enzyme-free phosphate-buffered saline (PBS)-based cell dissociation buffer (Gibco Life Technologies) and stained with mouse anti-human DR4 or DR5 conjugated to phycoerythrin (PE) (eBioscience). Briefly, 0.25×10^6 cells were incubated in 100 μl of staining buffer (2% FBS and 0.02% sodium azide in PBS) and 5 μl anti-DR4 or anti-DR5 for one hour on ice in the dark. As a negative control to account for non-specific antibody binding, all four melanoma lines were stained with mouse IgG1κ, the same antibody isotype as DR4 and DR5, under the same conditions. After incubation, cells were washed twice with staining buffer and resuspended in 500 μl of staining buffer and analyzed on BD FACS Canto II using Diva software (BD Bioscience, San Jose, Calif.). Death Receptor Membrane Expression. The cell surface expression of DR4 and DR5 were determined according to previously described methods. For the permeabilization experiments, after the first antibody incubation cells were fixed in 4% paraformaldehyde for 10 minutes at room temperature and permeabilized with 0.1% saponin for 5 minutes at room temperature. Cells were then incubated with anti-IgG1κ, DR4 or DR5 for 30 minutes in the saponin buffer and analyzed by FACS. To calculate the cytoplasmic DR expression, […].

DR5 [6] = test: Death receptor membrane expression (anti-DR5-PE staining, FACS)
Experimental: as §7

DR4 [7] = test: Total DR4 protein (western blot)
Experimental: as §4, with “6.8). Cell lysates were heated for five minutes at 100° C., resolved by 12% SDS-polyacrylamide gel electrophoresis (SDS-PAGE) and transferred to polyvinylidene fluoride (PVDF) membrane. The membrane was blocked with 5% non-fat milk or 5% BSA for ≥1 hour and incubated with primary antibodies for PARP and caspase 8 (Cell Signaling).” for “6.8).”
(§8) Western Blot Analysis. Total cell lysates were analyzed for levels of PARP, caspase 8, caspase 3, Bid, caspase 9, caspase 6, caspase 7, FLIP, DR4 and DR5 and the cytosolic cellular fraction was analyzed for cytochrome C (Cell Signaling) using previously described western blotting techniques.

DR4 [8] = test: DR4 mRNA (reverse transcription-PCR)
Experimental: (§9) Reverse Transcription-PCR. Total RNA was extracted using TRIzol reagent (Ambion) and treated with DNase according to manufacturer's protocol (Invitrogen Deoxyribonuclease I, Amplification Grade). RT-PCR was performed following the manufacturer's protocol (Invitrogen SuperScript III One-Step RT-PCR System with Platinum® Taq DNA Polymerase). Human DR5 mRNA was amplified using the forward primer 5′-[…]-3′ and the reverse primer 5′-[…]-3′. For DR4, forward primer 5′-GAGCAACGCAGACTCGCT-3′ and the reverse primer 5′-TCACTCCAAGGACACGGC-3′ were used. For FLIP, forward primer 5′-[…]-3′ and the reverse primer 5′-[…]-3′ were used. For β-actin, the forward primer 5′-[…]-3′ and the reverse primer 5′-[…]-3′ were used. cDNA synthesis was performed at 60° C. for 30 minutes using the Applied Biosystems GeneAmp PCR System 9700. The PCR cycling conditions (30 cycles) were as follows: denature for 2 minutes at 94° C., anneal for 30 seconds at 55° C. for FLIP and DR4 and 65° C. for DR5 and β-actin, extend for 1 minute and 30 seconds at 68° C., and execute a final extension for 10 minutes at 68° C. Reaction products were analyzed on 1.2% agarose gels. The bands were visualized by ethidium bromide and an UV.

DR5 [9] = test: Total DR5 protein (western blot)
Experimental: as §4, with “6.8). Cell lysates were heated for five minutes at 100° C., resolved by 12% SDS-polyacrylamide gel electrophoresis (SDS-PAGE) and transferred to polyvinylidene fluoride (PVDF) membrane. The membrane was blocked with 5% non-fat milk or 5% BSA for ≥1 hour and incubated with primary antibodies for PARP and caspase 8 (Cell Signaling).” for “6.8).”
as §8

DR5 [10] = test: DR5 mRNA (reverse transcription-PCR)
Experimental: as §9

DR4 [11] = test: Cytoplasmic DR4 expression (permeabilization, FACS)
Experimental: Death Receptor Membrane Expression. The cell surface expression of DR4 and DR5 were determined according to previously described methods. For the permeabilization experiments, after the first antibody incubation cells were fixed in 4% paraformaldehyde for 10 minutes at room temperature and permeabilized with 0.1% saponin for 5 minutes at room temperature. Cells were then incubated with anti-IgG1κ, DR4 or DR5 for 30 minutes in the saponin buffer and analyzed by FACS. To calculate the cytoplasmic DR expression, […].

FLIP [12] = test: Total FLIP protein (western blot)
Experimental: Western Blot Analysis. Total cell lysates were prepared using RIPA lysis buffer (Sigma) containing 150 mM sodium chloride, 1.0% Triton X-100, 0.5% sodium deoxycholate, 0.1% sodium dodecyl sulfate (SDS) and 50 mM Tris, pH 8.0 plus a 1× cocktail of protease inhibitors (Protease Inhibitor Cocktail Set I, Calbiochem). Cells were lysed for 30 minutes at 4° C. followed by centrifugation for 10 minutes at 10,000 rpm at 4° C. Protein concentrations were determined using BCA protein assay (Pierce). A 35 μg protein aliquot was mixed with 4× Laemmli's SDS sample buffer (0.02% Bromophenol Blue (BPB), 8% Beta-mercaptoethanol (BME), 8% SDS, 40% glycerol and 250 mM Tris-HCl, pH 6.8). Cell lysates were heated for five minutes at 100° C., resolved by 12% SDS-polyacrylamide gel electrophoresis (SDS-PAGE) and transferred to polyvinylidene fluoride (PVDF) membrane. The membrane was blocked with 5% non-fat milk or 5% BSA for ≥1 hour and incubated with primary antibodies for PARP and caspase 8 (Cell Signaling). After incubation, the membrane was incubated with secondary anti-rabbit or mouse horseradish peroxidase (HRP)-conjugated antibodies (Biorad). Proteins were visualized through development by enhanced chemiluminescence (ECL 2 Western Blotting Substrate, Pierce) and exposure on X-ray film. The blots were reprobed for β-actin to confirm equal protein loading.
as §8

FLIP [13] = test: FLIP mRNA (reverse transcription-PCR)
Experimental: as §9

[14] = tested on: rhTRAIL-resistant malignant melanomas; test: Western blot of co-treatment with general caspase inhibitor Z-VAD-FMK; conditions: Z-VAD-FMK added to rhTRAIL plus quercetin
Experimental: as §4, with “6.8). Cell lysates were heated for five minutes at 100° C., resolved by 12% SDS-polyacrylamide gel electrophoresis (SDS-PAGE) and transferred to polyvinylidene fluoride (PVDF) membrane.” for “6.8).”
as §8
Post treatment cells were collected and analyzed for induction of apoptosis through Annexin-V and PI staining and western blotting probing for key proteins in the apoptotic pathways (FIG. 4). […]

[15] = MeWo, post-treatment with quercetin
[16] = WM164, post-treatment with quercetin

O=c1c(O)c(-c2ccc(O)c(O)c2)oc2cc(O)cc(O)c12 [quercetin]
induction of apoptosis compared to control (MeWo [1]): no significant induction of apoptosis
apoptotic cells (WM164 [2]; WM164, quercetin alone at 25 μM): 10.5±0.7%
apoptotic cells (WM164 [2]; WM164, quercetin alone at 50 μM): 19.1±1.6%
PARP cleavage or activation of pro-apoptotic proteins (MeWo [3]): no PARP cleavage or activation of any pro-apoptotic proteins
PARP cleavage or protein activation (WM164 [4]): did not reveal any PARP cleavage or protein activation
DR4 membrane expression, fold increase relative to control (DR4 [5]; MeWo, quercetin 25 μM): over four-fold
DR4 membrane expression, fold increase relative to control (DR4 [5]; MeWo, quercetin 50 μM): over 11 fold
DR4 membrane expression, fold increase relative to control (DR4 [5]; WM164, quercetin 25 μM): nearly five-fold
DR4 membrane expression, fold increase relative to control (DR4 [5]; WM164, quercetin 50 μM): seven-fold
DR5 membrane expression upregulation (DR5 [6]; MeWo, quercetin 25 and 50 μM): this did not occur
DR5 membrane expression, fold increase relative to control (DR5 [6]; WM164, quercetin 25 μM): quarter-fold increase
DR5 membrane expression, fold increase relative to control (DR5 [6]; WM164, quercetin 50 μM): half-fold increase
total DR4 protein expression (DR4 [7]; [15]): no change
total DR4 protein expression (DR4 [7]; [16]): no change
DR4 mRNA message (DR4 [8]; [15]): no change
DR4 mRNA message (DR4 [8]; [16]): no change
total DR5 protein expression (DR5 [9]; [15]): no change
total DR5 protein (DR5 [9]; [16]): dose-dependent upregulation
DR5 mRNA (DR5 [10]; [15]): no change
DR5 mRNA (DR5 [10]; [16]): dose-dependent upregulation
cytoplasmic levels of DR4 (DR4 [11]; MeWo, application of quercetin): decreased
cytoplasmic levels of DR4 (DR4 [11]; WM164, application of quercetin): decreased
protein expression of FLIP (FLIP [12]; MeWo, quercetin): dose-dependently downregulate
protein expression of FLIP (FLIP [12]; WM164, quercetin): dose-dependently downregulate
FLIP mRNA transcript signal (FLIP [13]; MeWo, quercetin): no change
FLIP mRNA transcript signal (FLIP [13]; WM164, quercetin): no change

COC(=O)C[C@H](NC(=O)[C@H](C)NC(=O)[C@@H](NC(=O)OCc1ccccc1)C(C)C)C(=O)CF [Z-VAD-FMK] (Cbz-Val-Ala-Asp(OMe)-CH2F)
effect on induction of apoptosis (PARP cleavage, caspase 3 activation) in the co-treatment group [14]: blocked the induction of apoptosis

CC(C)C[C@@H](C=O)NC(=O)[C@H](CC(C)C)NC(=O)[C@H](CC(C)C)NC(=O)OCc1ccccc1 [MG132, reference compound] (Cbz-Leu-Leu-Leu-aldehyde)
effect of proteasome inhibitor on quercetin-mediated FLIP downregulation (total FLIP protein) (FLIP [12]; co-treatment with quercetin): the downregulation of FLIP was prevented
